“And” between values parts separate entries of the source, which are not always exact repeats. Equal entries are not always repeated. Where two headings read alike, the source gives them in different places. Marks after values point to notes of the source that are not given here.
What was measured:
[1] = molecular target: mTOR (Homo sapiens, UniProt P42345); details: low concentration; Serra et al., 2008; cited from earlier work
[2] = system: PI3K/mTOR; details: relatively higher concentrations; Serra et al., 2008; cited from earlier work
[3] = system: B/Brisbane/60/2008; experiment: Hemagglutination inhibition (HI) titers after seasonal influenza vaccination in elderly volunteers pretreated with RAD001 or placebo; assay type: in vivo, human
Procedure: (§1) From December 2011 to April 2012, 218 elderly volunteers were enrolled in a randomized, observer-blind, placebo-controlled trial. The subjects were randomized to treatment arms using a validated automated randomization system with a ratio of RAD001 to placebo of 5:2 in each treatment arm. The treatment arms were:
(§2) The trial was observer-blind because the placebo in the RAD001 0.5 mg daily and 20 mg weekly cohorts differed slightly from the RAD001 tablets in those cohorts. […] The treatment duration for all cohorts was 6 weeks during which time subjects underwent safety evaluations in the clinic every 2 weeks. After subjects had been dosed for 4 weeks, RAD001 steady state levels were measured pre-dose and at one hour post dose. After completing the 6 week course of study drug, subjects were given a 2 week drug free break to reverse any possible RAD001-induced immunosuppression, and then were given a 2012 seasonal influenza vaccination (Agrippal®, Novartis Vaccines and Diagnostics, Siena, Italy) containing the strains H1N1 A/California/07/2009, H3N2 A/Victoria/210/2009, B/Brisbane/60/2008. Four weeks after influenza vaccination, subjects had serum collected for influenza titer measurements. Antibody titers to the 3 influenza vaccine strains as well as to 2 heterologous strains (A/H1N1 strain A/New Jersy/8/76 and A/H3N2 strain A/Victoria/361/11) were measured by standard hemagglutination inhibition assay (Kendal, A P et al. (1982) Concepts and procedures for laboratory-based influenza surveillance. Atlanta: Centers for Disease Control and Prevention B17-B35). Levels of IgG and IgM specific for the A/H1N1/California/07/2009 were measured in serum samples taken before and 4 weeks after influenza vaccination as described previously (Spensieri, F. et al. (2013) Proc. Natl. Acad. Sci. USA 110:14330-14335). Results were expressed as fluorescence intensity.
(§3) The primary analysis of geometric mean titer ratios was done using a normal Bayesian regression model with non-informative priors. This model was fitted to each antibody titer on the log scale. The primary outcome in each model was the Day 84 measurement. The Day 63 measurement was included in the outcome vector. The model fitted using SAS 9.2 proc mixed with the prior statement. The covariance structure of the matrix was considered as unstructured (option type=UN). A flat prior was used. For the secondary analysis of seroconversion rates, logistic regression was used.
(§4) The ability of RAD001 to improve immune function in elderly volunteers was evaluated by measuring the serologic response to the 2012 seasonal influenza vaccine. The hemagglutination inhibition (HI) geometric mean titers (GMT) to each of the 3 influenza vaccine strains at baseline and 4 weeks after influenza vaccination are provided in Table 4. The primary analysis variable was the HI GMT ratio (4 weeks post vaccination/baseline). […] This endpoint was chosen because a 1.2-fold increase in the influenza GMT ratio induced by the MF-59 vaccine adjuvant was associated with a decrease in influenza illness (Iob, A et al. (2005) Epidemiol Infect 133:687-693).
(§5) Rates of seroconversion 4 weeks after influenza vaccination were also evaluated. Seroconversion was defined as the change from a negative pre-vaccination titer (i.e., HI titer <1:10) to post-vaccination HI titer≥1:40 or at least 4-fold increase from a non-negative (≥1:10) pre-vaccination HI titer.

[4] = system: H1N1 A/California/07/2009; experiment: as above; assay type: in vivo, human
Procedure: as §1, §2, §3, §4, §5

[5] = system: H3N2 A/Victoria/210/2009; experiment: as above; assay type: in vivo, human
Procedure: as §1, §2, §3, §4, §5

[6] = system: A/H1N1 strain A/New Jersey/8/76; assay type: in vivo, human; details: for Percentage of subjects who seroconvert to heterologous strain 4 weeks after seasonal influenza vaccination: A/H1N1 strain: A/NewJersey/8/76
[7] = system: A/H3N2 strain A/Victoria/361/11; experiment: HI titers / seroconversion to heterologous influenza strain not contained in the vaccine; assay type: in vivo, human; details: for Percentage of subjects who seroconvert to heterologous strain 4 weeks after seasonal influenza vaccination: A/H3N2 strain: A/Victoria/361/11
[8] = Adverse event assessment in elderly volunteers; assay type: in vivo, human; details: for Treatment-related AEs: Total AE(s): N = 53
Procedure: Adverse event assessment and blood collection for hematologic and biochemical safety assessments were performed during study visits. Adverse event information was also collected in diaries that subjects filled out at home during the 6 weeks they were on study drug. Data on all adverse events were collected from the time of informed consent until 30 days after the last study visit. Events were classified by the investigators as mild, moderate or severe.
The 4 SAEs were retinal hemorrhage of the left eye with subsequent blindness in a subject with normal platelet counts who had completed a 6 week course of 5 mg weekly RAD001 6 weeks previously; severe back pain in a subject treated with placebo and severe gastroenteritis in a subject treated with placebo. The most common RAD001-related AE was mouth ulcer that, in the majority of cases, was of mild severity.

[9] = system: PD-1 positive and PD-1 negative CD4 and CD8 T cells; set-up: species or system human; details: in vivo
[10] = system: A/H1N1/California/07/2009; experiment: Anti-influenza IgG and IgM levels in serum before and 4 weeks after vaccination; assay type: in vivo, human; details: all p values >0.05 by Kruskal-Wallis rank sum test
Procedure: as §2, with “After completing the 6 week course of study drug, subjects were given a 2 week drug free break to reverse any possible RAD001-induced immunosuppression, and then were given a 2012 seasonal influenza vaccination (Agrippal®, Novartis Vaccines and Diagnostics, Siena, Italy) containing the strains H1N1 A/California/07/2009, H3N2 A/Victoria/210/2009, B/Brisbane/60/2008. Four weeks after influenza vaccination, subjects had serum collected for influenza titer measurements.” left out

[11] = system: 3 influenza vaccine strains (H1N1, H3N2 and B); experiment: Primary endpoint: HI GMT increase relative to placebo in at least 2 out of 3 influenza vaccine strains; assay type: in vivo, human; details: for primary endpoint (>=1.2-fold GMT increase relative to placebo in at least 2 out of 3 vaccine strains): ITT population
Procedure: as §4
Elderly volunteers >=65 years of age were randomized to one of the 3 RAD001 treatment groups (50 subjects per arm) or placebo (20 subjects per arm). Subjects were treated with study drug for 6 weeks, given a 2 week break, and then received influenza (Aggrippal, Novartis) and pneumoccal (Pneumovax 23, Merck), vaccinations. Response to influenza vaccination was assessed by measuring the geometric mean titers (GMTs) by hemagglutination inhibition assay to the 3 influenza strains (H1N1, H3N2 and B influenza subtypes) in the influenza vaccine 4 weeks after vaccination. The primary endpoints of the study were (1) safety and tolerability and (2) a 1.2 fold increase in influenza titers as compared to placebo in ⅔ of the influenza vaccine strains 4 weeks after vaccination. This endpoint was chosen because a 1.2 fold increase in influenza titers is associated with a decrease in influenza illness post vaccination, and therefore is clinically relevant. […] The pneumococcal vaccine contains antigens from 23 pneumococcal serotypes. Antibody titers to 7 of the serotypes were measured in our subjects.

[12] = in vivo
[13] = clinical; details: human, in vivo
[14] = cited from earlier work
[15] = system: influenza; details: cited from earlier work
[16] = Intention to Treat Population, 0.5 mg
[17] = Intention to Treat Population, 5 mg
[18] = Intention to Treat Population, 20 mg
[19] = Subjects with Baseline Titers <=40, 0.5 mg
[20] = Subjects with Baseline Titers <=40, 5 mg
[21] = Subjects with Baseline Titers <=40, 20 mg

Cn1c(=O)n(-c2ccc(C(C)(C)C#N)cc2)c2c3cc(-c4cnc5ccccc5c4)ccc3ncc21 [BEZ235, 2-methyl-2-[4-(3-methyl-2-oxo-8-quinolin-3-yl-2,3-dihydro-imidazo[4,5-c]quinolin-1-yl)-phenyl]-propionitrile]
concentration at which mTOR inhibition predominates [1]: less than 100 nmol/L | concentration giving dual PI3K/mTOR inhibition [2]: approximately 500 nmol/L

CO[C@H]1C[C@@H]2CC[C@@H](C)[C@@](O)(O2)C(=O)C(=O)N2CCCC[C@H]2C(=O)O[C@H]([C@H](C)C[C@@H]2CC[C@@H](OCCO)[C@H](OC)C2)CC(=O)[C@H](C)/C=C(\C)[C@@H](O)[C@@H](OC)C(=O)[C@H](C)C[C@H](C)/C=C/C=C/C=C/1C [RAD001, (1R,9S,12S,15R,16E,18R,19R,21R,23 S,24E,26E,28E,30S,32S,35R)-1,18-dihydroxy-12-{(1R)-2-[(1 S,3R,4R)-4-(2-hydroxyethoxy)-3-methoxycyclohexyl]-1-methylethyl}-19,30-dimethoxy-15,17,21,23,29,35-hexamethyl-11,36-dioxa-4-aza-tricyclo[30.3.1.04,9]hexatriaconta-16,24,26,28-tetraene-2,3,10,14,20-pentaone]
Percent of subjects with seroconversion to influenza 4 weeks after vaccination [3, 16]: 27% | Percent of subjects with seroconversion to influenza 4 weeks after vaccination [3, 17]: 22% | Percent of subjects with seroconversion to influenza 4 weeks after vaccination [3, 18]: 19% | Percent of subjects with seroconversion to influenza 4 weeks after vaccination [3, 19]: 40* Percent | Percent of subjects with seroconversion to influenza 4 weeks after vaccination [3, 20]: 33% | Percent of subjects with seroconversion to influenza 4 weeks after vaccination [3, 21]: 28% | Percent of subjects with seroconversion to influenza 4 weeks after vaccination [4, 16]: 27% | Percent of subjects with seroconversion to influenza 4 weeks after vaccination [4, 17]: 27% | Percent of subjects with seroconversion to influenza 4 weeks after vaccination [4, 18]: 17% | Percent of subjects with seroconversion to influenza 4 weeks after vaccination [4, 19]: 42% | Percent of subjects with seroconversion to influenza 4 weeks after vaccination [4, 20]: 45% | Percent of subjects with seroconversion to influenza 4 weeks after vaccination [4, 21]: 36% | Percent of subjects with seroconversion to influenza 4 weeks after vaccination [5, 16]: 27% | Percent of subjects with seroconversion to influenza 4 weeks after vaccination [5, 17]: 24% | Percent of subjects with seroconversion to influenza 4 weeks after vaccination [5, 18]: 25% | Percent of subjects with seroconversion to influenza 4 weeks after vaccination [5, 19]: 64% | Percent of subjects with seroconversion to influenza 4 weeks after vaccination [5, 20]: 53% | Percent of subjects with seroconversion to influenza 4 weeks after vaccination [5, 21]: 71% | increase in HI GMT ratio for heterologous strain as compared to placebo ([6]; 4 weeks after vaccination): higher | Percentage of subjects who seroconvert to heterologous strain 4 weeks after seasonal influenza vaccination ([6]; RAD001 5 mg weekly): 16% | Percentage of subjects who seroconvert to heterologous strain 4 weeks after seasonal influenza vaccination ([6]; RAD001 20 mg weekly): 8% | increase in HI GMT ratio for heterologous strain as compared to placebo ([7]; 4 weeks after vaccination): higher | Percentage of subjects who seroconvert to heterologous strain 4 weeks after seasonal influenza vaccination ([7]; RAD001 0.5 mg daily): 38% | Percentage of subjects who seroconvert to heterologous strain 4 weeks after seasonal influenza vaccination ([7]; RAD001 5 mg weekly): 39%* | Percentage of subjects who seroconvert to heterologous strain 4 weeks after seasonal influenza vaccination ([7]; RAD001 20 mg weekly): 40%* | H3N2 heterologous strain seroconversion rate ([7]; pooled RAD001 cohorts, versus 20% for placebo (p=0.007)): 39% | Treatment-related AEs: Total AE(s) ([8]; RAD001 0.5 mg daily): 35 n (%) | Treatment-related AEs: Total AE(s) ([8]; RAD001 5 mg weekly): 46 n (%) | Treatment-related AEs: Total AE(s) ([8]; RAD001 20 mg weekly): 109 n (%) | deaths during the study ([8]; elderly volunteers, 6 week treatment): No deaths occurred | severe AEs assessed as related to RAD001 ([8]; mouth ulcers in a subject treated with 20 mg weekly): Only one severe AE | decrease in PD-1-positive CD4 T cells as compared to the placebo cohort [9]: −37.1-−28.5% | decrease in PD-1-positive CD8 T cells as compared to the placebo cohort [9]: −43.3-−38.5% | decrease in PD-1 positive CD4 T cells compared to placebo cohort [9]: 30.2% and 32.7% | decrease in PD-1 positive CD8 T cells compared to placebo cohort [9]: 37.4% and 41.4% | increase in PD-1-negative CD4 T cells as compared to the placebo cohort [9]: 3.0-4.9% | percentage of CD4 PD-1 positive T cells versus baseline [9]: decreased from baseline | percentage of CD8 PD-1 positive cells versus baseline [9]: decreased from baseline | significant differences in the percentages of naïve lymphocytes versus placebo [9]: not detected | change from baseline to 4 weeks post vaccination in anti-H1N1 influenza IgG and IgM levels versus placebo [10]: No significant difference | primary endpoint (>=1.2-fold GMT increase relative to placebo in at least 2 out of 3 vaccine strains) ([11]; 0.5 mg daily or 5 mg weekly): met the GMT primary endpoint | primary endpoint (>=1.2-fold GMT increase relative to placebo in at least 2 out of 3 vaccine strains) ([11]; 20 mg weekly): but not higher dose (20 mg weekly) cohort met the primary endpoint | RAD001 concentration versus increase in titer to each influenza vaccine strain ([11]; RAD001 concentration 1 hour post dose after 4 weeks dosing): inverse exposure/response relationship | increase in influenza titers in subjects with low baseline titers versus ITT population ([11]; subset with baseline influenza titers <=1:40): greater RAD001-associated increase in titers | trough level of study dosing regimens relative to approved transplant and oncology regimens ([12]; human): 3-20 fold lower | average RAD001 trough level [12]: below detection limits | concentration at 4 weeks ([13]; 0.5 mg daily): 0.9 ng/mL | concentration at 4 weeks ([13]; 5 mg weekly): < 0.3 ng/mL | concentration at 4 weeks ([13]; 20 mg weekly): 0.7 ng/mL

CO[C@H]1C[C@@H]2CC[C@@H](C)[C@@](O)(O2)C(=O)C(=O)N2CCCC[C@H]2C(=O)O[C@H]([C@H](C)C[C@@H]2CC[C@@H](O)[C@H](OC)C2)CC(=O)[C@H](C)/C=C(\C)[C@@H](O)[C@@H](OC)C(=O)[C@H](C)C[C@H](C)/C=C/C=C/C=C/1C [rapamycin]
lifespan ([14]; mice): extend lifespan | spontaneous physical activity ([14]; old mice): increases spontaneous physical activity | response to influenza vaccination ([15]; elderly mice, 6 weeks of treatment): improved response to influenza vaccination | serologic response to influenza as compared to placebo ([15]; mice vaccinated against influenza in the presence of rapamycin): broader serologic response to influenza
